According to ChEMBL document CHEMBL1153306, “Relation between lipophilicity of alkyl gallates and antifungal activity against yeasts and filamentous fungi” (Bioorg Med Chem Lett, 2009):
Converted amounts (≈) assume the structure as drawn.

Legend:
Aspergillus flavus = experiment: Antimicrobial activity against Aspergillus flavus after 48 hrs by broth microdilution technique; format: functional
Candida tropicalis = experiment: Antifungal activity against Candida tropicalis after 48 hrs by broth microdilution technique; format: functional
[1] = test system: Trichophyton mentagrophytes; experiment: Antimicrobial activity against Trichophyton mentagrophytes after 48 hrs by broth microdilution technique; format: functional
Cryptococcus neoformans = experiment: Antifungal activity against Cryptococcus neoformans after 48 hrs by broth microdilution technique; format: functional
Nannizzia gypsea = experiment: Antimicrobial activity against Microsporum gypseum after 48 hrs by broth microdilution technique; format: functional
Aspergillus fumigatus = experiment: Antimicrobial activity against Aspergillus fumigatus after 48 hrs by broth microdilution technique; format: functional
[2] = Lipophilicity, log P of the compound; format: physicochemical; details: octanol/water
Saccharomyces cerevisiae = experiment: Antifungal activity against Saccharomyces cerevisiae after 48 hrs by broth microdilution technique; format: functional
Candida albicans = experiment: Antifungal activity against Candida albicans after 48 hrs by broth microdilution technique; format: functional
Epidermophyton floccosum = experiment: Antimicrobial activity against Epidermophyton floccosum after 48 hrs by broth microdilution technique; format: functional
Trichophyton rubrum = experiment: Antimicrobial activity against Trichophyton rubrum after 48 hrs by broth microdilution technique; format: functional
Aspergillus niger = experiment: Antimicrobial activity against Aspergillus niger after 48 hrs by broth microdilution technique; format: functional

Row | SMILES | MIC (Aspergillus flavus) [mg/L] | MIC (Candida tropicalis) [mg/L] | MIC [1] [mg/L] | MIC (Cryptococcus neoformans) [mg/L] | MIC (Nannizzia gypsea) [mg/L] | MIC (Aspergillus fumigatus) [mg/L] | logP [2] | MIC (Saccharomyces cerevisiae) [mg/L] | MIC (Candida albicans) [mg/L] | MIC (Epidermophyton floccosum) [mg/L] | MIC (Trichophyton rubrum) [mg/L] | MIC (Aspergillus niger) [mg/L]
1 | CCCCCCCCOC(=O)c1cc(O)c(O)c(O)c1 [OCTYL_GALLATE] | 62.5 (≈ 221 µM) | 62.5 (≈ 221 µM) | 12.5 (≈ 44.3 µM) | 50 (≈ 177 µM) | 6.25 (≈ 22.1 µM) | 62.5 (≈ 221 µM) | 3.7 | 50 (≈ 177 µM) | 62.5 (≈ 221 µM) | 6.25 (≈ 22.1 µM) | 6.25 (≈ 22.1 µM) | 62.5 (≈ 221 µM)
2 | CCCCOC(=O)c1cc(O)c(O)c(O)c1 [BUTYL GALLATE] | > 250 | > 250 | 100 (≈ 442 µM) | > 250 | 50 (≈ 221 µM) | > 250 |  | > 250 | > 250 | 100 (≈ 442 µM) | 50 (≈ 221 µM) | > 250
3 | COc1cc(C(=O)O)cc(OC)c1OC [3,4,5-TRIMETHOXYBENZOIC ACID] | > 250 | > 250 | > 250 | > 250 | > 250 | > 250 |  | > 250 | > 250 | > 250 | > 250 | > 250
4 | CCOC(=O)c1cc(OC)c(OC)c(OC)c1 [ETHYLTRIMETHOXY BENZOATE] | > 250 | > 250 | > 250 | > 250 | > 250 | > 250 |  | > 250 | > 250 | > 250 | > 250 | > 250
5 | CN(C/C=C/C#CC(C)(C)C)Cc1cccc2ccccc12 [TERBINAFINE] |  |  | 0.04 (≈ 0.137 µM) |  | 0.04 (≈ 0.137 µM) |  |  |  |  | 0.004 (≈ 0.0137 µM) | 0.01 (≈ 0.0343 µM) | 
6 | C[C@@H]1[C@H](O)[C@@H](C)/C=C/C=C/C=C/C=C/C=C/C=C/C=C/[C@H](O[C@@H]2O[C@H](C)[C@@H](O)[C@H](N)[C@@H]2O)C[C@@H]2O[C@](O)(C[C@@H](O)C[C@@H](O)[C@H](O)CC[C@@H](O)C[C@@H](O)CC(=O)O[C@H]1C)C[C@H](O)[C@H]2C(=O)O [AMPHOTERICIN B] | 0.5 (≈ 0.541 µM) | 0.5 (≈ 0.541 µM) |  | 0.25 (≈ 0.271 µM) |  | 0.5 (≈ 0.541 µM) |  | 0.5 (≈ 0.541 µM) | 0.78 (≈ 0.844 µM) |  |  | 0.5 (≈ 0.541 µM)
7 | Oc1cccc(O)c1O [PYROGALLOL] | > 250 | 100 (≈ 793 µM) | 50 (≈ 396 µM) | 62.5 (≈ 496 µM) | 50 (≈ 396 µM) | 100 (≈ 793 µM) |  | 100 (≈ 793 µM) | 100 (≈ 793 µM) | 12.5 (≈ 99.1 µM) | 25 (≈ 198 µM) | > 250
8 | CCCCCCCOC(=O)c1cc(O)c(O)c(O)c1 [HEPTYL GALLATE] | 100 (≈ 373 µM) | 100 (≈ 373 µM) | 12.5 (≈ 46.6 µM) | 62.5 (≈ 233 µM) | 6.25 (≈ 23.3 µM) | 100 (≈ 373 µM) |  | 100 (≈ 373 µM) | 100 (≈ 373 µM) | 6.25 (≈ 23.3 µM) | 6.25 (≈ 23.3 µM) | 100 (≈ 373 µM)
9 | CC(=O)Oc1cc(C(=O)O)cc(OC(C)=O)c1OC(C)=O [3,4,5-TRIACETOXYBENZOIC ACID] | > 250 | > 250 | > 250 | > 250 | > 250 | > 250 |  | > 250 | > 250 | > 250 | > 250 | > 250
10 | CCCCCCCCCCCCOC(=O)c1cc(O)c(O)c(O)c1 [DODECYL GALLATE] | > 250 | > 250 | 50 (≈ 148 µM) | > 250 | 100 (≈ 295 µM) | > 250 |  | > 250 | > 250 |  | 50 (≈ 148 µM) | > 250
11 | CCCCCCCCCCCCCCCCOC(=O)c1cc(O)c(O)c(O)c1 [HEXADECYL GALLATE] | > 250 | > 250 | 125 (≈ 317 µM) | > 250 | 250 (≈ 634 µM) | > 250 |  | > 250 | > 250 |  | 250 (≈ 634 µM) | > 250
12 | CCOC(=O)c1cc(O)c(O)c(O)c1 [ETHYLGALLATE] | > 250 | > 250 | 100 (≈ 505 µM) | > 250 | 100 (≈ 505 µM) | > 250 |  | > 250 | > 250 | 100 (≈ 505 µM) | 100 (≈ 505 µM) | > 250
13 | CC(=O)N1CCN(c2ccc(OCC3COC(Cn4ccnc4)(c4ccc(Cl)cc4Cl)O3)cc2)CC1 (configuration not stated) [KETOCONAZOLE] | 0.78 (≈ 1.47 µM) | 0.125 (≈ 0.235 µM) |  | 0.39 (≈ 0.734 µM) |  | 0.78 (≈ 1.47 µM) |  | 3.12 (≈ 5.87 µM) | 1.56 (≈ 2.94 µM) |  |  | 1.56 (≈ 2.94 µM)
14 | CCCCCCCCCCCCCCOC(=O)c1cc(O)c(O)c(O)c1 [TETRADECYL GALLATE] | > 250 | > 250 | 50 (≈ 136 µM) | 250 (≈ 682 µM) | 100 (≈ 273 µM) | > 250 |  | > 250 | > 250 | > 250 | 50 (≈ 136 µM) | > 250
15 | CCCCCCCCCOC(=O)c1cc(O)c(O)c(O)c1 [NONYL GALLATE] | 62.5 (≈ 211 µM) | 8 (≈ 27 µM) | 8 (≈ 27 µM) | 8 (≈ 27 µM) | 8 (≈ 27 µM) | 62.5 (≈ 211 µM) | 3.7 | 8 (≈ 27 µM) | 8 (≈ 27 µM) | 25 (≈ 84.4 µM) | 8 (≈ 27 µM) | 125 (≈ 422 µM)
16 | CCCCCOC(=O)c1cc(O)c(O)c(O)c1 [PENTYL GALLATE] | > 250 | > 250 | 50 (≈ 208 µM) | > 250 | 50 (≈ 208 µM) | > 250 |  | > 250 | > 250 | 100 (≈ 416 µM) | 50 (≈ 208 µM) | > 250
17 | O=C(O)c1cc(O)c(O)c(O)c1 [GALLIC ACID] | > 250 | > 250 | 125 (≈ 735 µM) | > 250 | > 250 | > 250 |  | > 250 | > 250 | 100 (≈ 588 µM) | 100 (≈ 588 µM) | > 250
18 | COC(=O)c1cc(O)c(O)c(O)c1 [GALLIC ACID METHYL ESTER] | > 250 | > 250 | 100 (≈ 543 µM) | > 250 | 100 (≈ 543 µM) | > 250 |  | > 250 | > 250 | 100 (≈ 543 µM) | 100 (≈ 543 µM) | > 250
19 | CCCCCCCCCCOC(=O)c1cc(O)c(O)c(O)c1 [DECYL GALLATE] | > 250 | 100 (≈ 322 µM) | 50 (≈ 161 µM) | 50 (≈ 161 µM) | 50 (≈ 161 µM) | 100 (≈ 322 µM) |  | 100 (≈ 322 µM) | 100 (≈ 322 µM) | 25 (≈ 80.5 µM) | 12.5 (≈ 40.3 µM) | > 250
20 | CCCCCCCCCCCCCCCCCCOC(=O)c1cc(O)c(O)c(O)c1 [OCTADECYL GALLATE] | > 250 | > 250 | > 250 | > 250 | > 250 | > 250 |  | > 250 | > 250 | 250 (≈ 592 µM) | 250 (≈ 592 µM) | > 250
21 | CCCCCCOC(=O)c1cc(O)c(O)c(O)c1 [HEXYL GALLATE] | > 250 | > 250 | 25 (≈ 98.3 µM) | > 250 | 25 (≈ 98.3 µM) | > 250 |  | > 250 | > 250 | 25 (≈ 98.3 µM) | 25 (≈ 98.3 µM) | > 250
22 | CCCOC(=O)c1cc(O)c(O)c(O)c1 [PROPYL GALLATE] | > 250 | > 250 | 100 (≈ 471 µM) | > 250 | 75 (≈ 353 µM) | > 250 |  | > 250 | > 250 | 100 (≈ 471 µM) | 50 (≈ 236 µM) | > 250
23 | CCCCCCCCCCCOC(=O)c1cc(O)c(O)c(O)c1 [UNDECYL GALLATE] | > 250 | 200 (≈ 616 µM) | 100 (≈ 308 µM) | 100 (≈ 308 µM) | 125 (≈ 385 µM) | > 250 |  | 200 (≈ 616 µM) | 250 (≈ 771 µM) |  | 125 (≈ 385 µM) | > 250
